Source: patent US7674887B2, “Thrombopoietin mimetics” (GlaxoSmithKline LLC, priority 2000, dated 2010)

Experiments:
human UT7TPO cell line = assay: Proliferation assay using the human UT7TPO cell line; assay type: cell-based; settings: UT7TPO cells
From the text: Proliferation Assay Some of the more preferred compounds of this invention were active in an in vitro proliferation assay using the human UT7TPO cell line. UT7TPO cells are a human megakaryoblastic cell line that express Tpo-R, whose survival and growth is dependent on the presence of TPO (Komatsu et al. Blood 1996, 87,4552).

Compound	melting point	EC50 (human UT7TPO cell line; Homo sapiens, UT7/TPO) [nM]	activity relative to TPO in the proliferation assay (human UT7TPO cell line) [% TPO]
CC1=NN(c2ccc(C(C)(C)C)cc2)C(=O)C1=NNc1cccc(-c2cccc(C(=O)O)c2)c1O (hydrate or solvate) [Example 4, 3′-{N′-[1-(4-tert-butylphenyl)-3-methyl-5-oxo-1,5-dihydropyrazol-4-ylidene]hydrazino}-2′-hydroxybiphenyl-3-carboxylic acid]	145 °C (dec.)		
CC1=NN(c2ccc(C)c(C)c2)C(=O)C1=NNc1cccc(-c2cccc(C(=O)O)c2)c1O [Example 3, 3′-{N′-[1-(3,4-dimethylphenyl)-3-methyl-5-oxo-1,5-dihydropyrazol-4-ylidene]hydrazino}-2′-hydroxybiphenyl-3-carboxylic acid]		30	100
Cc1ccc(N2N=C(Cl)C(=NNc3cccc(-c4cccc(C(=O)O)c4)c3O)C2=O)cc1C [Example 24, 3′-{N′-[3-Chloro-1-(3,4-dimethylphenyl)-5-oxo-1,5-dihydropyrazol-4-ylidene]hydrazino}-2′-hydroxybiphenyl-3-carboxylic acid]	210 °C (dec.)		

The next lines start with results.

melting point	Compound	EC50 (human UT7TPO cell line; Homo sapiens, UT7/TPO) [nM]	activity relative to TPO in the proliferation assay (human UT7TPO cell line) [% TPO]
280 °C (dec.)	CC1=NN(c2ccc(C)c(C)c2)C(=O)C1=NNc1ccc(-c2ccc(C(=O)O)cc2)cc1O (hydrate or solvate) [Example 1, 4′-{N′-[1-(3,4-dimethylphenyl)-3-methyl-5-oxo-1,5-dihydropyrazol-4-ylidene]hydrazino}-3′-hydroxybiphenyl-4-carboxylic acid]		
282 °C (dec.)	CC1=NN(c2ccc(C)c(C)c2)C(=O)C1=NNc1ccc(-c2cccc(C(=O)O)c2)cc1O [Example 2, 4′-{N′-[1-(3,4-dimethylphenyl)-3-methyl-5-oxo-1,5-dihydropyrazol-4-ylidene]hydrazino}-3′-hydroxybiphenyl-3-carboxylic acid]		
